Measurements as given in ChEMBL document CHEMBL5360586, “Purpurascenines A-C, Azepino-Indole Alkaloids from Cortinarius purpurascens: Isolation, Biosynthesis, and Activity Studies on the 5-HT2A Receptor” (J Nat Prod, 2023).
The source made the active and inactive calls. The calls are words filed in the database; no cut-off is given here.

Key:
MCF7 [1] = assay: Antiproliferative activity against human MCF7 cells assessed as inhibition of cell growth upto 100 uM measured after 48 hrs by resazurin staining based analysis; format: functional
PC-3 [2] = assay: Antiproliferative activity against human PC-3 cells assessed as inhibition of cell growth upto 100 uM measured after 48 hrs by resazurin staining based analysis; format: functional
HCT-116 [3] = assay: Antiproliferative activity against human HCT-116 cells assessed as inhibition of cell growth upto 100 uM measured after 48 hrs by resazurin staining based analysis; format: functional
[4] = molecular target: T1, 5-hydroxytryptamine receptor 2A (Homo sapiens, UniProt P28223); assay: Agonist activity at N-terminal HA-tagged human 5HT2A receptor transfected in CHO-K1 cells co-expressing C-terminal EYFP measured for 5.5 hrs by ONE-Glo reagent based luciferase assay; format: functional, cell-based
T1 sequence (P28223 whole entry): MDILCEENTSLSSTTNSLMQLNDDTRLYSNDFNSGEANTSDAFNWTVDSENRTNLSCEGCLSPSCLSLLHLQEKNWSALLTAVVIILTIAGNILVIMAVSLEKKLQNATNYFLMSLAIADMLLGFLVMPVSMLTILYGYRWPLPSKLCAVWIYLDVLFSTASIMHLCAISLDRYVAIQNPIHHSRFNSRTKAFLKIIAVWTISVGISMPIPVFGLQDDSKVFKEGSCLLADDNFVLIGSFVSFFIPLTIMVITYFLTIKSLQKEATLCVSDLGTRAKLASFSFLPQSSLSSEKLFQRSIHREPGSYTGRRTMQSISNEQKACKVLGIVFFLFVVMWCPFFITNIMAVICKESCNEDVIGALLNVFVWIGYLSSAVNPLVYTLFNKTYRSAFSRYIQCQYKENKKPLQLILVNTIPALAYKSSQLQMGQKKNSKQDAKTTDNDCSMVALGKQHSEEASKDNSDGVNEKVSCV

[5] = molecular target: T1, 5-hydroxytryptamine receptor 2A; assay: Agonist activity at N-terminal HA-tagged human 5HT2A receptor transfected in CHO-K1 cells co-expressing C-terminal EYFP assessed as maximal efficacy at 10^-11 M to 10^-5 M measured for 5.5 hrs by ONE-Glo reagent based luciferase assay relative to control; format: functional, cell-based
HCT-116 [6] = assay: Antiproliferative activity against human HCT-116 cells assessed as inhibition of cell growth measured after 48 hrs by resazurin staining based analysis; format: functional; settings: HCT-116, 48 h
[7] = molecular target: T1, 5-hydroxytryptamine receptor 2A; assay: Agonist activity at N-terminal HA-tagged human 5HT2A receptor transfected in CHO-K1 cells co-expressing C-terminal EYFP assessed as maximal efficacy at 10^-4 M measured for 5.5 hrs in presence of serotonin by ONE-Glo reagent based luciferase assay; format: functional, cell-based; settings: filed as agonist, dose 0.0001 M
[8] = molecular target: T1, 5-hydroxytryptamine receptor 2A; assay: Agonist activity at N-terminal HA-tagged human 5HT2A receptor transfected in CHO-K1 cells co-expressing C-terminal EYFP measured for 5.5 hrs in presence of serotonin by ONE-Glo reagent based luciferase assay; format: functional, cell-based
MCF7 [9] = assay: Antiproliferative activity against human MCF7 cells assessed as inhibition of cell growth measured after 48 hrs by resazurin staining based analysis; format: functional; settings: MCF7, 48 h
PC-3 [10] = assay: Antiproliferative activity against human PC-3 cells assessed as inhibition of cell growth measured after 48 hrs by resazurin staining based analysis; format: functional; settings: PC-3, 48 h
PC-3 [11] = assay: Antiproliferative activity against human PC-3 cells assessed as inhibition of cell growth at 100 uM measured after 48 hrs by resazurin staining based analysis; format: functional; parameters: scale not given: the % may be the effect or the level left

| SMILES | Activity (MCF7 [1]) | Activity (PC-3 [2]) | Activity (HCT-116 [3]) | EC50 [4] | Emax [5] | IC50 (HCT-116 [6]) | Emax [7] | EC50 [8] | IC50 (MCF7 [9]) | IC50 (PC-3 [10]) | Activity (PC-3 [11]) |
| --- | --- | --- | --- | --- | --- | --- | --- | --- | --- | --- | --- |
| NCCc1c[nH]c2ccc(O)cc12 | inactive | inactive | inactive | – | – | – | – | – | – | – | – |
| CC1=N[C@H](C(=O)O)Cc2c[nH]c3c(O)ccc1c23 | – | – | – | > 10 µM | 22% | > 100 µM | 52% | 0.0254 µM | > 100 µM | > 100 µM | ~30% |
